Test results published in paper PMC2211560 (PLoS Medicine, 2008).
Values joined by “and” are separate entries in the source; they are usually repeats but may differ in a detail not shown here. Equal values may be shown once. Read-outs that look alike come from different tables or passages of the source.

Columns and labels:
[1] = in vivo
Experimental: Adverse events were evaluated according to the National Cancer Institute Common Toxicity Criteria, version 2 (http://ctep.info.nih.gov/reporting/index.html).
The first three patients were enrolled at the initial dose level of 2 mg per day. After a four week evaluation period for dose limiting toxicity, a minimum of 3 more patients could be enrolled at the next dose level. […] Presurgical dosing included the loading dose followed by the daily maintenance dose until surgery. After the patient recovered from the effects of surgery, identical loading and maintenance doses (e.g., 6 mg and 2 mg, respectively) were administered. […] Assessment of drug safety was done following a routine schedule and supplemented by additional evaluation whenever a patient reported a new symptom. […] Toxicities were graded according to the National Cancer Institute Common Toxicity Criteria version 2.0. Treatments were held until recovery to ≤ grade 1 toxicity for ANC < 1000/µl, platelets < 80,000/ µl, grade 3 or grade 4 non-hematologic toxicities, and grade 4 hypercholesterolemia or hypertryglyceridemia. […] A 50 % dose reduction was made for ANC < 750/µl, platelets < 50,000/µl, or grade 4 non-hematological AE. Patients were allowed two dose reductions.

[2] = tested on: mTOR; assay: S6 ribosomal protein phosphorylation in tumor tissue by IHC (S2 versus S1); type: in vivo, human; conditions: ratio of median IHC staining score S2 to S1, individual patients
Text: To quantify mTOR activity in matched S1 and S2 samples, we measured phosphorylation of S6 ribosomal protein by immunohistochemistry using two distinct phosphosite antibodies directed against Ser235/236 or Ser240/244. […] Immunohistochemistry (IHC) scoring is described in detail in Text S1.
The following antibodies were used for IHC: anti-PTEN (6H2.1, #ABM-2052, Cascade BioScience; 1:400 dilution), anti-Ki-67 (MIB-1, M7240, DakoCytomation; 1:100 Dilution), anti-phospho Ser235/236 S6 (91B2, #4857, Cell Signaling; 1:50 dilution), anti phospho Ser240/244 S6 (#2215, Cell Signaling; 1:200 dilution), anti-phospho-PRAS 40 (#44–1100G, Biosource; 1:200 dilution), anti-phospho Ser473 Akt (736E11, #3787, Cell Signaling; 1:50 dilution), anti-phospho Thr389 p70 S6 Kinase (#9205, Cell Signaling; 1:100 Dilution), and anti phospho Ser1108 eIF4G at 1:400 (#2441, Cell Signaling; 1:400 dilution). Antigen retrieval was performed using 0.01 M citrate buffer, pH 6.0 for 30 min in an oven and peroxidase activity was quenched with 3% hydrogen peroxide in water. Primary antibodies were diluted in PBS /2% bovine serum albumin/2% normal horse serum (for anti-PTEN) or TBS/0.1% Tween/5% normal goat serum (for phosphosite-specific antibodies) and applied overnight at 4 °C. Biotinylated secondary antibodies (Vector) were applied at 1:200 dilution for 45 min, and the avidin-biotin complex (Elite ABC, Vector) for 30 min. Vector NovaRed was used as the enzyme substrate to visualize specific antibody localization. […] All slides were counterstained with Harris hematoxylin.
To quantify mTOR activity, we measured phosphorylation of S6 ribosomal protein by immunohistochemistry. S6 is a direct substrate of S6 kinase 1, a downstream effector of mTOR action, and has been widely used as a pharmacodynamic readout of mTOR inhibition in preclinical studies. To ensure specificity, we used two distinct phosphosite antibodies directed against Ser235/236 or Ser240/244 (Figure 2B). Both sites are directly phosphorylated by S6 kinase 1, but Ser235/236 can also be phosphorylated by p90 ribosomal S6 kinase (RSK) and other kinases. All measurements were quantified by digital readout of 2,500–5,000 tumor cells per slide cut from paraffin-embedded tissue (Figure S1).
Supplementary file pmed.0050008.sg001.pdf: Figure S1 Digital Scoring of Immunohistochemical Stains Adjacent tissue sections from each tumor were stained with antibodies against Ki-67, phospho S6 ribosomal protein (S6RP), phospho-PRAS40, and PTEN (unpublished data). Five areas per slide, each representing approximately 500–1,000 tumor cells, were selected for digital scoring. Image conversion and scoring was performed using Soft Imaging System Software. The distribution of immunoreactivity within these 2,500–5,000 cells was graphed for each sample as a box plot. The “fold change” (F.C.) in S6 immunoreactivity (Table 2 and Figure S2) was calculated for each tumor as the ratio between median staining score in the S2 and the median staining score in the S1 sample. (135 KB PDF) Click here for additional data file.
Scoring of immunohistochemical stains. Immunohistochemical screening of tumor samples for PTEN expression was based on a manual scoring method which compares PTEN staining of tumor cells to the PTEN staining of endothelial cells within the same viewfield and assigns scores of 0 (absent in tumor cells), 1 (reduced in tumor cells relative to endothelial cells), and 2 (tumor cells staining similar to endothelial cells). Digital scores for PTEN, phospho-S6, and phospho-PRAS40 are based on absolute staining intensity of tumor cells as quantified following false-color conversion.

[3] = tested on: PTEN-null cell lines; set-up: method as in PMID 11504908, PMID 11566616; conditions: PTEN-null cell lines in vitro; cited from earlier work
[4] = tested on: recurrent PTEN-deficient glioblastoma; assay: Clinical outcome: time-to-progression and radiographic response; type: in vivo, human; conditions: for TTP: interval between start of rapamycin and postoperative treatment failure, individual patients
Text: Figure 1 Clinical Trial Design Enrollment in the Phase I clinical trial was restricted to patients whose initial tumor resection (“surgery 1”) specimen was PTEN-deficient by immunohistochemistry. Patients were enrolled after failing standard therapy with radiation and chemotherapy (i.e., “tumor recurrence”).
Patients were allowed two dose reductions.

CO[C@H]1C[C@@H]2CC[C@@H](C)[C@@](O)(O2)C(=O)C(=O)N2CCCC[C@H]2C(=O)O[C@H]([C@H](C)C[C@@H]2CC[C@@H](O)[C@H](OC)C2)CC(=O)[C@H](C)/C=C(\C)[C@@H](O)[C@@H](OC)C(=O)[C@H](C)C[C@H](C)/C=C/C=C/C=C/1C [Rapamycin]
grade 3 or 4 toxicities ([1]; human): No grade 3 or 4 toxicities | patients with grade 3 adverse events (hypokalemia, hypercholesterolemia, and cytopenias) ([1]; human): Five of 15 | patients with grade 3 adverse events (hypokalemia, hypercholesterolemia, and cytopenias) [1]: five | perioperative bleeding complications [1]: no perioperative bleeding complications | pS6 S2/S1 pSer235/236 ([2]; 2 mg oral daily): 0.46 and 1.01 | pS6 S2/S1 pSer240/244 ([2]; 2 mg oral daily): 0.61 and 0.82 and 0.85 | pS6 S2/S1 pSer235/236 ([2]; 5 mg oral daily): 0.91 and 0.48 and 0.22 and 0.77 and 1.16 | pS6 S2/S1 pSer240/244 ([2]; 5 mg oral daily): 0.94 and 0.51 and 0.18 and 0.58 and 0.54 | pS6 S2/S1 pSer235/236 ([2]; 10 mg oral daily): 0.78 and 0.55 and 0.19 and 0.81 and 1.50 and 0.60 | pS6 S2/S1 pSer240/244 ([2]; 10 mg oral daily): 0.27 and 0.58 and 0.44 and 0.60 and 0.56 and 0.91 | Rapamycin concentrations known to confer antiproliferative activity [3]: ~1 nM | TTP ([4]; 2 mg oral daily): 62 days and 40 days and 70 days | TTP ([4]; 5 mg oral daily): 194 days and 69 days and 144 days and 153 days and 42 days | TTP ([4]; 10 mg oral daily): 39 days and 538 days and 98 days and 146 days and 99 days and 55 days | tumor regression by magnetic resonance imaging ([4]; Patient 8, extended neoadjuvant course (25 d), 5 mg, prior to surgery): > 50% | duration of radiographically stable disease postoperatively ([4]; Patient 11): > 16 mo | time from starting rapamycin to death without evidence of tumor recurrence ([4]; Patient 11, 10 mg): 538 days | Radiographic Response to Rapamycin ([4]; single-agent rapamycin, study patients): 2/15
